Patent US20200268703A1, “MEDICINE FOR TREATING ADVANCED OR RECURRENT CANCER PATIENT BEING NON-RESPONSIVE OR NON-TOLERANT TO STANDARD CHEMOTHERAPY AND INCURABLE AND UNRESECTABLE” (HYOGO COLLEGE OF MEDICINE, priority 2017, published 2020)
Several values for one entry are separate records, joined by “and”; a condition that tells them apart may be missing. Equal values may be shown once.

Tested on: advanced or recurrent gastric cancer which is non-responsive or non-tolerant to standard chemotherapy and incurable and unresectable
Experiment: Clinical trial of propagermanium in patients with advanced or recurrent gastric cancer (OS, PFS, lung metastasis imaging)
Assay type: in vivo, human
Settings: for OS / PFS: 30 mg orally per day
Method: 30 mg of propagermanium [trade name: SEROCION (registered trademark), produced by SANWA KAGAKU KENKYUSHO CO., LTD.] was administered orally in three divided doses per day after meals to 13 patient cases (P-1 to P-13) who were diagnosed as advanced or recurrent gastric cancer which is non-responsive or non-tolerant to standard chemotherapy [gastric cancer treatment guideline fourth edition (edited by Japan Gastric cancer Association, revised in May 2014)] and incurable and unresectable, and a clinical trial was conducted with overall survival (hereinafter also referred to as “OS”) and progression-free survival (hereinafter also referred to as “PFS”) as evaluation items. This clinical trial was conducted under an approval of Ethics Committee of Hyogo College of Medicine (No. 1911). The ECOG performance status (hereinafter also referred to as “PS”), the OS, and the PFS of 13 patient cases are shown in Table 1.
On the other hand, in Hyogo College of Medicine Hospital from 2009 to 2011, in 62 cases which were diagnosed as advanced gastric cancer which is non-responsive or non-tolerant to standard chemotherapy and incurable and unresectable and for which palliative care (Best Supportive Care; hereinafter “BSC”) to reduce pain was provided, the median of OS from the time when a doctor explained BSC to the patient was 22 days.
13 Patient cases in which the propagermanium was administered and 62 patient cases in which the BSC was provided were divided into two groups of (A) 0 and 1 and (B) 2 and 3 according to PS thereof. In the two groups, medians of the OS in the propagermanium administration examples and BSC examples were compared. As a result, in the patient groups whose PS was (A) 0 and 1, the median of OS in the BSC examples was 23.5 days, whereas the median of OS in the propagermanium administration examples was 163 days. The survival time was extended approximately 7 times compared to the BSC examples. […] Accordingly, it was confirmed that the survival days were extended compared to the BSC examples.
In 13 patient cases in which the propagermanium was administered, mean values of OS were compared according to the presence and absence of the peritoneal metastasis (Table 2 and FIG. 4). As a result, the mean value of OS of 8 patient cases with the peritoneal metastasis was 81.1 days, whereas the mean value of OS of 5 patient cases without the peritoneal metastasis was 164.7 days. […] In addition, 13 patient cases in which the propagermanium was administered were divided into two groups of (C) 0 and 1 and (D) 2 and 3 according to the PS thereof. In the two groups, mean values of the OS were compared according to the presence or absence of the peritoneal metastasis (Table 2 and FIG. 4). As a result, in the patient group whose PS was (C) 0 and 1, the mean value of OS of 4 cases with the peritoneal metastasis was 139 days, whereas the mean value of OS of 3 cases without the peritoneal metastasis was 273 days. […] On the other hand, in the patient group whose PS was (D) 2 and 3, the mean value of OS of 4 cases with the peritoneal metastasis was 37.8 days, whereas the mean value of OS of 2 cases without the peritoneal metastasis was 56.3 days.

With propagermanium the “Median of PFS” value (13 patient cases) was 49 days, the “Median of OS” value (13 patient cases, BSC examples (62 cases) 22 days) was 73 days and the “Kaplan Meier survival curves of OS versus BSC (FIG. 1)” value (13 propagermanium cases versus 62 BSC cases) was “significant life prolongation effect”. For the same substance, the “Mean value of OS” value ((C) PS 0 and 1, with peritoneal metastasis, 4 cases) was 139 days and 139 (4) days, the “Mean value of OS” value ((C) PS 0 and 1, without peritoneal metastasis, 3 cases) was 273 days and 273 (3) days and the “Mean value of OS” value ((D) PS 2 and 3, with peritoneal metastasis, 4 cases) was 37.8 days and 37.8 (4) days. The “Mean value of OS” value ((D) PS 2 and 3, without peritoneal metastasis, 2 cases) was 56.3 days and 56.3 (2) days, the “OS without versus with peritoneal metastasis” value (shortened to “OS without versus”) (all 13 propagermanium patient cases) was “significant life prolongation effect” and the “Mean value of OS” value (all patients, with peritoneal metastasis, 8 cases) was 81.1 days and 81.1 (8) days. For the same substance, the “Mean value of OS” value (all patients, without peritoneal metastasis, 5 cases) was 164.7 days and 164.7 (5) days, the OS (patient P-1, PS 2) was 76 days and the PFS (patient P-1, PS 2) was 56 days. For the same substance, the OS (patient P-2, PS 3) was 34 days, the PFS (patient P-2, PS 3) was 3 days and the OS (patient P-3, PS 0) was 344 days. The PFS (patient P-3, PS 0) was 336 days, the OS (patient P-4, PS 2) was 72 days and the PFS (patient P-4, PS 2) was 28 days. The “Lesion site of lung (lung metastasis), imaging (FIG. 5)” value (patient P-5, 357th day after starting administration) was “scar was formed”, the PFS (patient P-5, PS 1) was 392 days and the “Lesion site of lung (lung metastasis), imaging (FIG. 5)” value (patient P-5, from the 35th day after starting administration) was “reduction was observed”. The OS (patient P-6, PS 3) was 36 days, the PFS (patient P-6, PS 3) was 22 days and the OS (patient P-7, PS 0) was 83 days. It also gave a PFS (patient P-7, PS 0) of 49 days, an OS (patient P-8, PS 1) of 73 days and a PFS (patient P-8, PS 1) of 73 days. The OS (patient P-9, PS 3) was 30 days, the PFS (patient P-9, PS 3) was 21 days and the OS (patient P-10, PS 2) was 11 days. For the same substance, the PFS (patient P-10, PS 2) was 7 days, the OS (patient P-11, PS 0) was 163 days and the PFS (patient P-11, PS 0) was 159 days. The OS (patient P-12, PS 1) was 181 days, the PFS (patient P-12, PS 1) was 178 days and the OS (patient P-13, PS 1) was 61 days. For the same substance, the PFS (patient P-13, PS 1) was 36 days, the “Kaplan Meier survival curve of OS versus BSC (FIG. 2)” value (patient group PS (A) 0 and 1) was “significant life prolongation effect” and the “Survival time extension compared to BSC examples” value (patient group PS (A) 0 and 1) was “approximately 7 times”. For the same substance, the “Median of OS” value (patient group PS (A) 0 and 1, BSC examples 23.5 days) was 163 days, the “Median of OS” value (patient group PS (B) 2 and 3, BSC examples 22 days) was 35 days and the “Kaplan Meier survival curve of OS versus BSC (FIG. 3)” value (patient group PS (B) 2 and 3, significant difference not confirmed) was “tendency to prolong life”. For the same substance, the “OS without versus” value (patient group PS (C) 0 and 1) was “significant life prolongation effect” and the “OS without versus” value (patient group PS (D) 2 and 3, significant difference not confirmed) was “tendency to prolong life”.
